Laboratory results taken from patent US12312370B2, “Immunoproteasome inhibitors” (Principia Biopharma Inc., priority 2017, dated 2025).

Experiments:
[1] = molecular target: constitutive proteasome β5c unit (Homo sapiens, UniProt P28074); assay: Caliper-based proteasome enzymatic activity assay, β5c; format: biochemical; conditions: human recombinant constitutive proteasome 0.3 nM, FAM-labeled peptide substrate 1 μM, rt 3 h; read-out: β5c subunit IC50
[2] = molecular target: immunoproteasome LMP7/B5i subunit (Homo sapiens, UniProt P28062); assay: Caliper-based proteasome enzymatic activity assay, LMP7; format: biochemical; conditions: human recombinant immunoproteasome 0.3 nM, FAM-labeled peptide substrate 1 μM, rt 3 h; read-out: LMP7 subunit IC50

| IC50 [1] [nM] | IC50 [2] [nM] | SMILES |
| --- | --- | --- |
| 207 | 18.3 | C=CC(=O)N1C[C@H](F)[C@H](OC(=O)N[C@@H](Cc2ccccc2)B(O)O)C1 [Example 115, ((R)-1-(((((3R,4S)-1-acryloyl-4-fluoropyrrolidin-3-yl)oxy)carbonyl)amino)-2-phenylethyl)boronic acid] |
| > 5000 | > 5000 | C=CC(=O)N1CCCC(C)(OC(=O)N[C@@H](Cc2ccccc2)B(O)O)C1 (single isomer, unassigned) [Example 85] |
| 2080 | 1.9 | CC(C)(C=C(C#N)C(=O)N1CCCC[C@@H](OC(=O)N[C@@H](Cc2ccc(F)cc2)B(O)O)C1)N1CCOCC1 [Example 137, ((R)-1-(((((R)-1-(2-cyano-4-methyl-4-morpholinopent-2-enoyl)azepan-3-yl)oxy)carbonyl)amino)-2-(4-fluorophenyl)ethyl)boronic acid] |
| 1070 | 1 | COC(=O)N1CCN(C(C)(C)C=C(C#N)C(=O)N2CCCC[C@@H](OC(=O)N[C@@H](Cc3ccccc3)B(O)O)C2)CC1 [Example 107, ((R)-1-(((((R)-1-(2-cyano-4-(4-(methoxycarbonyl)piperazin-1-yl)-4-methylpent-2-enoyl)azepan-3-yl)oxy)carbonyl)amino)-2-phenylethyl)boronic acid] |
| > 5000 | 37.3 | C=CC(=O)N1C[C@@H](F)[C@@H](OC(=O)N[C@@H](Cc2ccccc2)B(O)O)C1 [Example 124, ((R)-1-(((((3S,4R)-1-acryloyl-4-fluoropyrrolidin-3-yl)oxy)carbonyl)amino)-2-phenylethyl)boronic acid] |
| 832 | 0.9 | C[C@H]1CN(C(C)(C)C=C(C#N)C(=O)N2C3CCC2(COC(=O)N[C@@H](Cc2ccccc2)B(O)O)CC3)C[C@H](C)O1 [Example 123, ((R)-1-((((7-(2-cyano-4-((2S,6S)-2,6-dimethylmorpholino)-4-methylpent-2-enoyl)-7-azabicyclo[2.2.1]heptan-1-yl)methoxy)carbonyl)amino)-2-phenylethyl)boronic acid] |
| 1170 | 2 | C[C@H]1CN(C(C)(C)C=C(C#N)C(=O)N2C3CCC2(COC(=O)N[C@@H](Cc2ccccc2)B(O)O)CC3)CCO1 [Example 122, ((R)-1-((((7-(2-cyano-4-methyl-4-((S)-2-methylmorpholino)pent-2-enoyl)-7-azabicyclo[2.2.1]heptan-1-yl)methoxy)carbonyl)amino)-2-phenylethyl)boronic acid] |
| 574 | 1.9 | CC(C)(C)/C=C(\C#N)C(=O)N1CC[C@H](OC(=O)N[C@@H](Cc2ccccc2)B(O)O)C1 [Example 87, ((R)-1-(((((S)-1-((E)-2-cyano-4,4-dimethylpent-2-enoyl)pyrrolidin-3-yl)oxy)carbonyl)amino)-2-phenylethyl)boronic acid] |
| 2660 | 2.5 | CC(C)(C=C(C#N)C(=O)N1CCCC[C@H](OC(=O)N[C@@H](Cc2ccccc2)B(O)O)C1)N1CCC(F)(F)C1 [Example 106, ((R)-1-(((((S)-1-(2-cyano-4-(3,3-difluoropyrrolidin-1-yl)-4-methylpent-2-enoyl)azepan-3-yl)oxy)carbonyl)amino)-2-phenylethyl)boronic acid] |
| 21.1 | 13.4 | CC(C)C=C(C#N)C(=O)NCCCC[C@H](NS(C)(=O)=O)C(=O)N[C@@H](Cc1ccccc1)B(O)O [Example 12, ((R)-1-((S)-6-(2-cyano-4-methylpent-2-enamido)-2-(methylsulfonamido)hexanamido)-2-phenylethyl)boronic acid] |
| 10.9 | 6.4 | Cc1ccncc1C(=O)N[C@@H](CCCCNC(=O)C(C#N)=CC(C)C)C(=O)N[C@@H](Cc1ccccc1)B(O)O [Example 17, ((R)-1-((S)-6-(2-cyano-4-methylpent-2-enamido)-2-(4-methylnicotinamido)hexanamido)-2-phenylethyl)boronic acid] |
